Results on two compounds are retold here after publication PMC7921015, “Spatiotemporal GLP-1 and GIP receptor signaling and trafficking/recycling dynamics induced by selected receptor mono- and dual-agonists” (Molecular Metabolism, 2021).

A value given as a limit tells only on which side of the number the result lay.

In assay [1] the target is Human GLP-1R-GFP (human) (UniProt P43220).
For assay [2], the target named is Human GIPR-turbo GFP (human) (UniProt P48546).
Assay [3] addresses Human GLP-1R-GFP (human) (UniProt P43220). This is another data set of the same source.
Assay [4] deals with Human GIPR-turbo GFP (human) (UniProt P48546). This is another data set of the same source.
For assay [5], the target named is T1, human GLP-1R (Homo sapiens, UniProt P43220).
T1 construct: host or cells: HEK293T
T1 sequence (P43220 24-463): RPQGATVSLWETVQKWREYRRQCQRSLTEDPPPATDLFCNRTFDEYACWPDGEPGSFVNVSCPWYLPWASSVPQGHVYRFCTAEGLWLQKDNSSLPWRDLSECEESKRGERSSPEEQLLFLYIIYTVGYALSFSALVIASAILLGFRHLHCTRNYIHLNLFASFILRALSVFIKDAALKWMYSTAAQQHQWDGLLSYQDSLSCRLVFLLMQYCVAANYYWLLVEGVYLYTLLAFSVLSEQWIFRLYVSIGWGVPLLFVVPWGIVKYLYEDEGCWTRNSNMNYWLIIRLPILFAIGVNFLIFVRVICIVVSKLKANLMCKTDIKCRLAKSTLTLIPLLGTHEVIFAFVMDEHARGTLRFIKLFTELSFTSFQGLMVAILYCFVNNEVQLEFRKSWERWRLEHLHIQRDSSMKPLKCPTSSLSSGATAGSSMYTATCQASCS
Nature of the assay: cAMP assay (CAMYEL BRET sensor), GLP-1R. It counts as cell-based. As to conditions: CAMYEL sensor, no IBMX, mean ± SEM, at least 3 experiments, SEM. How it is done: (§1) The cells were seeded (700,000 cells/well) in 6-well plates and incubated to ∼70% confluency in complete media supplemented with 10% FBS and 1% Pen-Strep. […] Baseline measurements were taken after 5 min of incubation with coelenterazine-h or NanoGlo. The cells were then treated with a vehicle or the respective agonists. […] The temporal data of the vehicle-corrected agonist measurement was then normalized to the baseline reading of the same well. The first BRET reading following treatment with agonist/vehicle was the subsequent measurement after the zero time point. Positive or negative incremental areas under the curves (+iAUC/-iAUC) were calculated where noted. Each experiment was independently performed at least three times, with at least two technical replicates for each group.
(§2) CAMYEL, a cAMP sensor using YFP-Epac-RLuc was utilized to quantify cAMP accumulation with the temporal resolution. Then, 500 ng of CAMYEL DNA was co-transfected with 500 ng of DNA of untagged GLP-1R or GIPR per well in a 6-well plate. The experiments were performed in the absence of 3-isobutyl-1-methylxanthine (IBMX).
(§3) Data are represented as means ± S.E.M. Each experiment was independently conducted at least three times, each with at least two technical replicates. […] Dose responses were fitted using non-linear regression. pEC50 and EC50 values were calculated using GraphPad Prism 8.0 (GraphPad, San Diego, CA, USA). Statistical analyses were calculated in GraphPad 8.0 using one-way analysis of variance (ANOVA) and corrected with Tukey's or Bonferroni's multiple comparison test. Differences are considered significant with an adjusted p value < 0.05.
Background: cAMP levels reflect the balance of adenylyl cyclase and phosphodiesterase activity.

Assay [6] concerns the target T1, human GLP-1R. The experiment in a line: Gαq (mini-G) recruitment BRET assay, GLP-1R. It counts as cell-based. As to conditions: HEK293T, GLP-1R-GFP + NLuc-mini-G, +iAUC 60 min. For orientation: In BRET a luciferase serves as donor, and the signal depends on an acceptor being close.
In assay [7] the target is T1, human GLP-1R. The experiment in a line: GPCR internalization assay (loss of BRET with Venus-KRAS), GLP-1R. As to conditions: HEK293T, hGLP-1R-Rluc8 + Venus-KRAS, iAUC 60 min. It counts as cell-based.
Assay [8] deals with T1, human GLP-1R. The experiment in a line: β-arrestin 1 recruitment BRET assay, GLP-1R. The class given is cell-based. Particulars: HEK293T, GLP-1R-GFP + β-arrestin1-RLUC8, BRET, +iAUC 30 min. How it is done: as §1
(§4) Co-localization of β-arrestin1/2-RLUC8 with GLP-1R-GFP or GIPR-GFP was assessed.
(§5) Data are represented as means ± S.E.M. Each experiment was independently conducted at least three times, each with at least two technical replicates. […] Dose responses were fitted using non-linear regression. pEC50 and EC50 values were calculated using GraphPad Prism 8.0 (GraphPad, San Diego, CA, USA). Statistical analyses were calculated in GraphPad 8.0 using one-way analysis of variance (ANOVA) and corrected with Tukey's or Bonferroni's multiple comparison test. […]

Assay [9] concerns the target T1, human GLP-1R. The experiment in a line: β-arrestin 2 recruitment BRET assay, GLP-1R. The class given is cell-based. Particulars: HEK293T, GLP-1R-GFP + β-arrestin2-RLUC8, BRET, +iAUC 30 min. As for the experimental part:
as §1, §4, §5
For orientation: Activated receptors often draw arrestin, which recruitment assays turn into a signal.

In assay [10] the target is T1, human GLP-1R. Nature of the assay: Gαs (mini-G) recruitment BRET assay, GLP-1R. The class given is cell-based. As to conditions: HEK293T, GLP-1R-GFP + NLuc-mini-G, +iAUC 60 min.
The target of assay [11] is T2, human GIPR (Homo sapiens, UniProt P48546).
T2 sequence (P48546 22-466): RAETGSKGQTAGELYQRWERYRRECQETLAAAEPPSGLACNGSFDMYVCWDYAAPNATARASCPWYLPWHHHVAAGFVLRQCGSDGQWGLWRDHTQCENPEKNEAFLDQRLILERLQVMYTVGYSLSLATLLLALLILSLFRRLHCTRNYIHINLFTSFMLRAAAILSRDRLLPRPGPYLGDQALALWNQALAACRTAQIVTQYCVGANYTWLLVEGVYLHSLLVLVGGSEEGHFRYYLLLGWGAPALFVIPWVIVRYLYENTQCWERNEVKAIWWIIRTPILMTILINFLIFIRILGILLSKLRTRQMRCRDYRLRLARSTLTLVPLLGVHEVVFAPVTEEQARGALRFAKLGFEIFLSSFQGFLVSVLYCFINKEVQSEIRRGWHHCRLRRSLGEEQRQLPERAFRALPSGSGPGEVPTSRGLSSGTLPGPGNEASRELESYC
Nature of the assay: cAMP assay (CAMYEL BRET sensor), GIPR. It counts as cell-based. Particulars: HEK293T, GIPR, CAMYEL sensor, no IBMX, +iAUC 25 min. How it is done:
as §1, §2, §3

Assay [12] deals with T2, human GIPR. The experiment in a line: Gαq (mini-G) recruitment BRET assay, GIPR. The class given is cell-based. Particulars: HEK293T, GIPR-GFP + NLuc-mini-G, +iAUC 60 min.
The target in assay [13] is T2, human GIPR. The experiment in a line: GPCR internalization assay (loss of BRET with Venus-KRAS), GIPR. The class given is cell-based. Particulars: HEK293T, hGIPR-Rluc8 + Venus-KRAS, iAUC 20 min.
For assay [14], the target named is T2, human GIPR. Nature of the assay: β-arrestin 1 recruitment BRET assay, GIPR. It counts as cell-based. Particulars: HEK293T, GIPR-GFP + β-arrestin1-RLUC8, BRET, +iAUC 30 min. How it is done:
as §1, §4, §3

Assay [15] has as its target T2, human GIPR. Nature of the assay: β-arrestin 2 recruitment BRET assay, GIPR. The class given is cell-based. Particulars: HEK293T, GIPR-GFP + β-arrestin2-RLUC8, BRET, +iAUC 30 min. How it is done:
as §1, §4, §3

The target in assay [16] is T2, human GIPR. The experiment in a line: Gαs (mini-G) recruitment BRET assay, GIPR. It counts as cell-based. Particulars: HEK293T, GIPR-GFP + NLuc-mini-G, +iAUC 60 min.
Where [17] appears, read: HEK-293T, mean ± SEM, at least 3 experiments, SEM.
Where [18] appears, read: read-out: Receptor Internalization EC50.
Setting [19] is: read-out: β-arr1 Recruitment EC50.
Setting [20] is: read-out: β-arr2 Recruitment EC50.

For orientation: Emax means the greatest response seen or fitted, relative to the assay's reference.

Chain of Human GLP-1R-GFP (human) (P43220 24-463): as the sequence (P43220 24-463) above

In the assay with Human GLP-1R-GFP (human) [1], MAR709 (peptide) registered a GLP-1R internalization Emax, % of GLP-1 (7–36 amide) (loss of BRET between hGLP-1R-Rluc8 and Venus-KRAS, HEK293T) of 51%. For the same compound, the GIPR internalization Emax, % of GIP (1–42) (loss of BRET between hGIPR-Rluc8 and Venus-KRAS, HEK293T) in assay [2] was found to be 4%. In addition, in the assay with Human GLP-1R-GFP (human) [3], the GLP-1R co-localization with Rab5 early endosomes (BRET of hGLP-1R-Rluc8 with Venus-Rab5, HEK293T), 1 μM, % of GLP-1 (7–36 amide) was found to be 68% and the GLP-1R co-localization with Rab7 late endosomes (BRET of hGLP-1R-Rluc8 with Venus-Rab7, HEK293T), % of GLP-1 (7–36 amide) was 62%. The compound also came in with a GIPR co-localization with Rab5^+ endosomes (BRET of hGIPR-Rluc8 with Venus-Rab5, HEK293T), % of the response to GIP (1–42), fatty acyl-GIP and tirzepatide in [4] of 66%.

As to `CCCCCCCCCCCCCCCC(=O)NCCCC[C@H](NC(=O)[C@H](CO)NC(=O)[C@@H]1CCCN1C(=O)[C@@H]1CCCN1C(=O)[C@@H]1CCCN1C(=O)[C@H](C)NC(=O)CNC(=O)[C@H](CO)NC(=O)[C@H](CO)NC(=O)[C@@H]1CCCN1C(=O)CNC(=O)CNC(=O)[C@H](C)NC(=O)[C@H](CC(C)C)NC(=O)[C@H](CC(C)C)NC(=O)[C@H](Cc1c[nH]c2ccccc12)NC(=O)[C@H](CC(N)=O)NC(=O)[C@@H](NC(=O)[C@H](Cc1ccccc1)NC(=O)[C@H](CCC(=O)O)NC(=O)C(C)(C)NC(=O)[C@H](C)NC(=O)[C@H](C)NC(=O)[C@H](CCC(N)=O)NC(=O)[C@H](CCCCN)NC(=O)[C@H](CC(=O)O)NC(=O)[C@H](CC(C)C)NC(=O)[C@H](Cc1ccc(O)cc1)NC(=O)[C@@H](NC(=O)[C@H](CO)NC(=O)[C@@H](NC(=O)[C@H](CC(=O)O)NC(=O)[C@H](CO)NC(=O)[C@@H](NC(=O)[C@H](Cc1ccccc1)NC(=O)[C@@H](NC(=O)CNC(=O)[C@H](CCC(=O)O)NC(=O)C(C)(C)NC(=O)[C@@H](N)Cc1c[nH]cn1)[C@@H](C)O)[C@@H](C)O)C(C)C)[C@@H](C)CC)C(C)C)C(N)=O` [fatty acyl-GLP-1], the EC50 at human GLP-1R [5] (HEK293T, GLP-1R, +iAUC 25 min, read-out: cAMP pEC50 (converted)) was 0.363 nM; at human GLP-1R [6], 305 nM; at human GLP-1R [7] (setting [18]) it was 490 nM; at human GLP-1R [8] (setting [19]), 358 nM; on human GLP-1R [9] (setting [20]), 188 nM; on human GLP-1R [10], 423 nM. For the same compound, the EC50 at human GIPR [11] (mean ± SEM, read-out: cAMP pEC50 (converted)) was > 1000 nM; at human GIPR [11] (read-out: cAMP EC50), > 1000 nM; at human GIPR [12] (mean ± SEM, read-out: Gαq Recruitment pEC50 (converted)), > 1000 nM; on human GIPR [12] (read-out: Gαq Recruitment EC50), > 1000 nM; at human GIPR [13] (mean ± SEM, read-out: Receptor Internalization pEC50 (converted)) it was > 1000 nM; at human GIPR [13] (setting [18]) it was > 1000 nM. Besides, the EC50 on human GIPR [14] (setting [19]) is > 1000 nM; at human GIPR [14] (read-out: β-arr1 Recruitment pEC50 (converted)), > 1000 nM; on human GIPR [15] (mean ± SEM, read-out: β-arr2 Recruitment pEC50 (converted)) it was > 1000 nM; at human GIPR [15] (setting [20]) it was > 1000 nM; on human GIPR [16] (mean ± SEM, read-out: Gαs Recruitment pEC50 (converted)) it was > 1000 nM; on human GIPR [16] (read-out: Gαs Recruitment EC50), > 1000 nM. The Emax was 99 ± 3% at human GLP-1R [5] (HEK-293T, HEK293T transiently expressing untagged GLP-1R, +iAUC of 25 min response, 3-parameter fit); 101 ± 5% at human GLP-1R [6] (setting [17]); 108 ± 4% at human GLP-1R [7] (HEK-293T, mean ± SEM, at least 3 experiments, SEM, read-out: Receptor Internalization Emax (% GLP-1)); 88 ± 4% at human GLP-1R [8] (HEK-293T, mean ± SEM, at least 3 experiments, SEM, read-out: β-arr1 Recruitment Emax (% GLP-1)); 86 ± 3% on human GLP-1R [9] (HEK-293T, mean ± SEM, at least 3 experiments, SEM, read-out: β-arr2 Recruitment Emax (% GLP-1)); 98 ± 5% at human GLP-1R [10] (setting [17]).
